Results on 28 compounds are retold here after US8815881B2 (Hoffmann-La Roche Inc., priority 2010, dated 2014).

The target in the assay is endogenous cellular BACE2 in the Ins1e rat cell line (Rattus norvegicus (Rat), UniProt Q6IE75). In words: Assay for BACE inhibition by measuring cellular TMEM27 cleavage (ELISA of shed hTMEM27 from INS-TMEM27 cells). It is filed as cell-based. Conditions: assay a): cellular TMEM27 cleavage, INS-TMEM27 cells (superscript a). From the text: a) Assay for BACE Inhibition by Measuring Cellular TMEM27 Cleavage:
The assay uses the principle of inhibition of human TMEM27 cleavage by endogenous cellular BACE2 in the Ins1e rat cell line and shedding from the cell surface into the culture medium, followed by detection in an ELISA assay. Inhibition of BACE2 prevents the cleavage and shedding in a dose-dependent manner.
The stable cell line “INS-TMEM27” represents an INS1e-derived cell line with inducible expression (using the TetOn system) of full-length hTMEM27 in a doxycycline-dependent manner. The cells are cultured throughout the experiment in RPMI1640+Glutamax (Invitrogen) Penicillin/Streptomycin, 10% Fetal bovine serum, […], […], 100 micrograms/ml G418 and 100 microgram/ml hygromycin and are grown inadherent culture at 37° C. in a standard CO2 cell culture incubator.
INS-TMEM27 cells are seeded in 96-well plates. After 2 days in culture, BACE2 inhibitor is added in a range of concentrations as required by the assay and after a further two hours, doxycycline is added to a final concentration of 500 ng/ml. The cells are incubated for a further 46 hours and the supernatant harvested for detection of shed TMEM27.
An ELISA assay (using a pair of mouse anti-human-TMEM27 antibodies, raised against the extracellular domain of TMEM27) is used for detection of TMEM27 in the culture medium. An EC50 for BACE2 inhibition is calculated using the ELISA readout for each inhibitor concentration with standard curve-fitting software such as XLFit for the Excel spreadsheet program.

Molecules are shown by their SMILES. Structures can show the parent of a compound that is named as a salt.

endogenous cellular BACE2 in the Ins1e rat cell line, sequence (Q6IE75 63-514): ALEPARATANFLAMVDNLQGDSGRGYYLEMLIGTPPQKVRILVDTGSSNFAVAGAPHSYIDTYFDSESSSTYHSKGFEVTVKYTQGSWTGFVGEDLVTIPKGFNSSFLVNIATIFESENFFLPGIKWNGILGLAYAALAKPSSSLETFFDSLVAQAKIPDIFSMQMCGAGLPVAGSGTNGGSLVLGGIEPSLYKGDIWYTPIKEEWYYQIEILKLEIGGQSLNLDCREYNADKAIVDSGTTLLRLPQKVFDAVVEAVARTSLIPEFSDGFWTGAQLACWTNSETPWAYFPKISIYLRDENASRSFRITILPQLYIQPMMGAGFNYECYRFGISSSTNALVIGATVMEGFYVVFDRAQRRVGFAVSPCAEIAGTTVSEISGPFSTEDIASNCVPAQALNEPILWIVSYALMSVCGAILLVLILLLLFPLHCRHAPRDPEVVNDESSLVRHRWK

`CN1C(=O)C(C)(C)[C@@](C)(c2cc(NCC(F)(F)F)ccc2F)N=C1N` [Example 75, (S)-2-Amino-6-(2-fluoro-5-(2,2,2-trifluoroethylamino)phenyl)-3,5,5,6-tetramethyl-5,6-dihydropyrimidin-4(3H)-one]: the IC50 worked out at 12 nM. For the compound `CN1C(=O)C(C)(C)[C@@](C)(c2cc(NC3CCN(Cc4ccccc4)CC3)ccc2F)N=C1N` [Example 43, (S)-2-Amino-6-[5-(1-benzyl-piperidin-4-ylamino)-2-fluoro-phenyl]-3,5,5,6-tetramethyl-5,6-dihydro-3H-pyrimidin-4-one], the IC50 was found to be 211 nM. To `Cc1nc(C(C)Nc2ccc(F)c([C@@]3(C)N=C(N)N(C)C(=O)C3(C)C)c2)sc1C` (stereo partly drawn) [Example 126, (S)-2-Amino-6-{5-[1-(4,5-dimethyl-thiazol-2-yl)-ethylamino]-2-fluoro-phenyl}-3,5,5,6-tetramethyl-5,6-dihydro-3H-pyrimidin-4-one] belongs 26 nM; to `CN1C(=O)C(C)(C)[C@@](C)(c2cc(NC3CCOCC3)ccc2F)N=C1N` [Example 50, (S)-2-Amino-6-[2-fluoro-5-(tetrahydro-pyran-4-ylamino)-phenyl]-3,5,5,6-tetramethyl-5,6-dihydro-3H-pyrimidin-4-one], 21.8 nM. The same measure for `CN1C(=O)C(C)(C)[C@@](C)(c2cc(NCC3CCCOC3)ccc2F)N=C1N` (stereo partly drawn) [Example 90, (S)-2-Amino-6-{2-fluoro-5-[(tetrahydro-pyran-3-ylmethyl)-amino]-phenyl}-3,5,5,6-tetramethyl-5,6-dihydro-3H-pyrimidin-4-one]: 467 nM; for `Cc1nc(C(C)Nc2ccc(F)c([C@@]3(C)N=C(N)N(C)C(=O)C3(C)C)c2)c(C(F)(F)F)o1` (stereo partly drawn) [Example 159, (S)-2-Amino-6-{2-fluoro-5-[1-(2-methyl-5-trifluoromethyl-oxazol-4-yl)-ethylamino]-phenyl}-3,5,5,6-tetramethyl-5,6-dihydro-3H-pyrimidin-4-one]: 24 nM; for `CC1CCC(Nc2ccc(F)c([C@@]3(C)N=C(N)N(C)C(=O)C3(C)C)c2)C1` (stereo partly drawn) [Example 24, (S)-2-Amino-6-[2-fluoro-5-(3-methyl-cyclopentylamino)-phenyl]-3,5,5,6-tetramethyl-5,6-dihydro-3H-pyrimidin-4-one]: 39 nM. In turn, `CN1C(=O)C(C)(C)[C@@](C)(c2cc(NCC3CC3)ccc2F)N=C1N` [Example 52, (S)-2-Amino-6-(5-(C-cyclopropylmethylamino)-2-fluorophenyl)-3,5,5,6-tetramethyl-5,6-dihydropyrimidin-4(3H)-one] displayed a half-inhibitory concentration (IC50) of 7 nM. The same measure for `CN1C(=O)C(C)(C)[C@@](C)(c2cc(NCC3(c4ccccc4)CC3)ccc2F)N=C1N` [Example 53, (S)-2-Amino-6-{2-fluoro-5-[(1-phenyl-cyclopropylmethyl)-amino]-phenyl}-3,5,5,6-tetramethyl-5,6-dihydro-3H-pyrimidin-4-one]: 153 nM; for `CN1C(=O)C(C)(C)[C@@](C)(c2cc(Nc3cccc4c3OC(C)(C)C4)ccc2F)N=C1N` [Example 156, (S)-2-Amino-6-(5-(2,2-dimethyl-2,3-dihydrobenzofuran-7-ylamino)-2-fluorophenyl)-3,5,5,6-tetramethyl-5,6-dihydropyrimidin-4(3H)-one]: 1210 nM. The same measure for `CN1C(=O)C(C)(C)[C@@](C)(c2cc(NCC3(C)COC3)ccc2F)N=C1N` [Example 71, (S)-2-Amino-6-{2-fluoro-5-[(3-methyl-oxetan-3-ylmethyl)-amino]-phenyl}-3,5,5,6-tetramethyl-5,6-dihydro-3H-pyrimidin-4-one]: 14 nM.

As to `CN1C(=O)C(C)(C)[C@@](C)(c2cc(NC3CCCC3)ccc2F)N=C1N` [Example 21, (S)-2-Amino-6-(5-(cyclopentylamino)-2-fluorophenyl)-3,5,5,6-tetramethyl-5,6-dihydropyrimidin-4(3H)-one], the IC50 came out at 14 nM. On to `CN1C(=O)C(C)(C)[C@@](C)(c2cc(Nc3ccccc3C#N)ccc2F)N=C1N` [Example 103, (S)-2-(3-(2-Amino-1,4,5,5-tetramethyl-6-oxo-1,4,5,6-tetrahydropyrimidin-4-yl)-4-fluorophenylamino)benzonitrile], for which the IC50 was 1 nM. Compared with the last compound, the IC50 is about 14-fold lower. In turn, `CN1C(=O)C(C)(C)[C@@](C)(c2cccc(NC(=O)C3(C#N)CC3)c2)N=C1N` [Example 1, 1-Cyano-cyclopropanecarboxylic acid [3-((R)-2-amino-1,4,5,5-tetramethyl-6-oxo-1,4,5,6-tetrahydro-pyrimidin-4-yl)-phenyl]-amide] registered a 50% inhibitory concentration (IC50) of 57 nM. In turn, `CN1C(=O)C(C)(C)[C@@](C)(c2cc(NC(=O)C(O)(C(F)(F)F)C(F)(F)F)ccc2F)N=C1N` [Example 148, (S)—N-(3-(2-amino-1,4,5,5-tetramethyl-6-oxo-1,4,5,6-tetrahydropyrimidin-4-yl)-4-fluorophenyl)-3,3,3-trifluoro-2-hydroxy-2-(trifluoromethyl)propanamide] showed a half-inhibitory concentration (IC50) of 497 nM. Compound `CN1C(=O)C(C)(C)[C@@](C)(c2cc(NCc3ccon3)ccc2F)N=C1N` [Example 86, (S)-2-Amino-6-{2-fluoro-5-[(isoxazol-3-ylmethyl)-amino]phenyl}-3,5,5,6-tetramethyl-5,6-dihydro-3H-pyrimidin-4-one] yielded an IC50 of 236 nM. Regarding `COc1ccc(C(=O)O)cc1Nc1ccc(F)c([C@@]2(C)N=C(N)N(C)C(=O)C2(C)C)c1` [Example 129, (S)-3-(3-(2-amino-1,4,5,5-tetramethyl-6-oxo-1,4,5,6-tetrahydropyrimidin-4-yl)-4-fluorophenylamino)-4-methoxybenzoic acid], the IC50 is 3050 nM. Regarding `Cc1ncsc1CNc1ccc(F)c([C@@]2(C)N=C(N)N(C)C(=O)C2(C)C)c1` [Example 78, (S)-2-Amino-6-{2-fluoro-5-[(4-methyl-thiazol-5-ylmethyl)-amino]-phenyl}-3,5,5,6-tetramethyl-5,6-dihydro-3H-pyrimidin-4-one], half-maximal inhibition (IC50) was put at 156 nM. This IC50 is about 20-fold lower than that of the compound before.

Consider `CN1C(=O)C(C)(C)[C@@](C)(c2cc(Nc3ccccc3)ccc2F)N=C1N` [Example 48, (S)-2-amino-6-(2-fluoro-5-(phenylamino)phenyl)-3,5,5,6-tetramethyl-5,6-dihydropyrimidin-4(3H)-one], for which the IC50 worked out at 42 nM. Regarding `CN1C(=O)C(C)(C)[C@@](C)(c2cc(NC3CS(=O)(=O)c4ccccc43)ccc2F)N=C1N` (stereo partly drawn) [Example 144, (S)-2-Amino-6-[5-(1,1-dioxo-2,3-dihydro-1H-1-benzo[b]thiophen-3-ylamino)-2-fluoro-phenyl]-3,5,5,6-tetramethyl-5,6-dihydro-3H-pyrimidin-4-one], half-maximal inhibition (IC50) was put at 3 nM. Consider `CN1C(=O)C(C)(C)[C@@](C)(c2cc(NC3CCc4cccc(Cl)c43)ccc2F)N=C1N` (stereo partly drawn) [Example 49, (S)-2-Amino-6-[5-(7-chloro-indan-1-ylamino)-2-fluoro-phenyl]-3,5,5,6-tetramethyl-5,6-dihydro-3H-pyrimidin-4-one], for which inhibition was half-maximal at 321 nM (IC50). `CN1C(=O)C(C)(C)[C@@](C)(c2cc(NC3CCCN(Cc4ccccc4)C3)ccc2F)N=C1N` (stereo partly drawn) [Example 44, (S)-2-Amino-6-[5-(1-benzyl-piperidin-3-ylamino)-2-fluoro-phenyl]-3,5,5,6-tetramethyl-5,6-dihydro-3H-pyrimidin-4-one]: the 50% inhibitory concentration (IC50) turned out to be 45 nM. To `COc1cccc2c1CCC2Nc1ccc(F)c([C@@]2(C)N=C(N)N(C)C(=O)C2(C)C)c1` (stereo partly drawn) [Example 47, (S)-2-Amino-6-[2-fluoro-5-(4-methoxy-indan-1-ylamino)-phenyl]-3,5,5,6-tetramethyl-5,6-dihydro-3H-pyrimidin-4-one] belongs 217 nM; to `CN1C(=O)C(C)(C)[C@@](C)(c2cc(Nc3ccn[nH]3)ccc2F)N=C1N` [Example 124, (S)-6-(5-(1H-Pyrazol-5-ylamino)-2-fluorophenyl)-2-amino-3,5,5,6-tetramethyl-5,6-dihydropyrimidin-4(3H)-one hydrochloride], 589 nM. The compound `COc1ccccc1Nc1ccc(F)c([C@@]2(C)N=C(N)N(C)C(=O)C2(C)C)c1` [Example 56, (S)-2-Amino-6-(2-fluoro-5-(2-methoxyphenylamino)phenyl)-3,5,5,6-tetramethyl-5,6-dihydropyrimidin-4(3H)-one] registered an IC50 of 15 nM. Compound `Cc1cc(CNc2ccc(F)c([C@@]3(C)N=C(N)N(C)C(=O)C3(C)C)c2)no1` [Example 104, (S)-2-Amino-6-{2-fluoro-5-[(5-methyl-isoxazol-3-ylmethyl)-amino]-phenyl}-3,5,5,6-tetramethyl-5,6-dihydro-3H-pyrimidin-4-one] had a concentration for half-maximal inhibition (IC50) of 4 nM.

In the case of `CN1C(=O)C(C)(C)[C@@](C)(c2cc(NC(=O)C3(C(F)(F)F)CC3)ccc2F)N=C1N` [Example 5, 1-Trifluoromethyl-cyclopropanecarboxylic acid [3-((S)-2-amino-1,4,5,5-tetramethyl-6-oxo-1,4,5,6-tetrahydro-pyrimidin-4-yl)-4-fluoro-phenyl]-amide], the 50% inhibitory concentration (IC50) was 11 nM. To `CN1C(=O)C(C)(C)[C@@](C)(c2cc(NC3CCCOC3)ccc2F)N=C1N` (stereo partly drawn) [Example 45, (S)-2-Amino-6-[2-fluoro-5-(tetrahydro-pyran-3-ylamino)-phenyl]-3,5,5,6-tetramethyl-5,6-dihydro-3H-pyrimidin-4-one] belongs 11 nM.
